Assay results from paper PMC2962730 (Journal of neurochemistry, 2010).
Substitutions are numbered along the chain they refer to.

How the values were obtained:
[1] = target: T1, hVAChT W325F (Homo sapiens, UniProt Q16572, W325F); experiment: [3H]vesamicol saturation binding; conditions: pH 7.4
T1 sequence (Q16572 1-532 W325F): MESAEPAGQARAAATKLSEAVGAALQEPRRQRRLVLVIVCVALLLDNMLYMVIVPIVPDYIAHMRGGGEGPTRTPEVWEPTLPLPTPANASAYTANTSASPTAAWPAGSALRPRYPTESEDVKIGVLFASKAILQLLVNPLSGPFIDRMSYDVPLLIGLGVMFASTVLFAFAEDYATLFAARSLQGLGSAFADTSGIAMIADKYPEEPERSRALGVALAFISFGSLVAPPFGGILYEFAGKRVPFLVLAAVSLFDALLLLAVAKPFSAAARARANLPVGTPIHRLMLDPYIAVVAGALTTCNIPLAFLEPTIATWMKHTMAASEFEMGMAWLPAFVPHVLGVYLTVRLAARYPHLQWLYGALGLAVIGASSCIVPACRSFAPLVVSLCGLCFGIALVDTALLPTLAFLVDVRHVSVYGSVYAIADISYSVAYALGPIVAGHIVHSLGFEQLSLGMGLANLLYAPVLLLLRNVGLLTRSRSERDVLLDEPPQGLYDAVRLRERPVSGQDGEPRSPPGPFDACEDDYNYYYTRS

[2] = target: T2, hVAChT W331L (Homo sapiens, UniProt Q16572, W331L); experiment: [3H]vesamicol saturation binding; conditions: pH 7.4
T2 sequence (Q16572 1-532 W331L): T1 sequence (Q16572 1-532 W325F) with F325W, W331L

[3] = target: T3, hVAChT F231A (Homo sapiens, UniProt Q16572, F231A); experiment: ACh equilibrium binding by competition against [3H]vesamicol
T3 sequence (Q16572 1-532 F231A): T1 sequence (Q16572 1-532 W325F) with F231A, F325W

[4] = target: T4, hVAChT W315A (Homo sapiens, UniProt Q16572, W315A); experiment: as above
T4 sequence (Q16572 1-532 W315A): T1 sequence (Q16572 1-532 W325F) with W315A, F325W

[5] = target: T5, hVAChT Y60H (Homo sapiens, UniProt Q16572, Y60H); experiment: [3H]ACh transport; assay type: biochemical
T5 sequence (Q16572 1-532 Y60H): T1 sequence (Q16572 1-532 W325F) with Y60H, F325W

[6] = target: T4, hVAChT W315A; experiment: [3H]ACh transport; assay type: biochemical
[7] = read-out: KM, Michaelis-Menten constant for ACh transport, pH 7.4

Compound	Bmax, maximal specific [3H]vesamicol binding (VAChT expression level) [1]	Bmax, maximal specific [3H]vesamicol binding (VAChT expression level) [2]	Kd [3]	FHA, fraction of the ACh sites that have high affinity ([3]; F231A hVAChT, pH 7.4)	Kd [4]	FHA, fraction of the ACh sites that have high affinity ([4]; W315A hVAChT, pH 7.4)	Vmax/Bmax, ACh transport normalized to Bmax ([5]; pH 7.4)	Km [5, 7]	Vmax/Bmax, ACh transport normalized to Bmax ([6]; pH 7.4)	Km [6, 7]
O[C@@H]1CCCC[C@H]1N1CCC(c2ccccc2)CC1 (racemic) [vesamicol, ( )-trans-2-(4-phenylpiperidino)cyclohexanol]	75 ± 3 pmol/mg	14 ± 1 pmol/mg	–	–	–	–	–	–	–	–
CC(=O)OCC[N+](C)(C)C [ACh, acetylcholine]	–	–	5.8 ± 1.2 mM	0.67 ± 0.05	11 ± 4 mM	0.84 ± 0.16	3.1 ± 0.6 min⁻¹	720 ± 530 µM	5.2 ± 0.8 min⁻¹	690 ± 220 µM
